Assay results published in US20070134725A1, “METHOD TO PREDICT RISK OF BPH PROGRESSION” (Baylor College of Medicine, priority 2004, published 2007).

Assays:
[1] = tested on: men with LUTS and BPH; design: Creatinine Rise, endpoint events: unit not given here; conditions: entire MTOPS cohort, number of events per treatment group; cited from earlier work
[2] = tested on: men with LUTS and BPH; assay: MTOPS trial of finasteride and doxazosin, alone or together, in men with BPH; Cox/competing risks models; type: in vivo, human; conditions: for Hazard Ratio: multivariable Cox model; for risk of AUR and/or SI in treated patients / risk of symptom progression in treated patients: within 4 years, result in words
From the text: Medical Therapy of Prostatic Symptoms (MTOPS) is a clinical research study sponsored by the National Institutes of Health (NIH). The study tested whether the oral drugs finasteride (Proscar®) and doxazosin (Cardura®), alone or together, can further delay or prevent further prostate growth in men with BPH.
MTOPS is the largest and longest study to test whether the drugs can stop noncancerous prostate growth. Seventeen U.S. medical centers recruited […] men diagnosed with symptomatic BPH between December 1995 and March 1998. The study doctors continued to follow these men through November 2001 on a quarterly basis. In addition to the clinical progression of BPH, MTOPS included evaluations of prostate volume by ultrasound, prostate histopathobiology, quality of life and urodynamics. (Funding by NIDDK (UO1-DK-46472), 1992-2002; IND 43,564; http://www.bsc.gwu.edu/mtops/; McConnell et al., 2003).)
Herein described is the development of a nomogram similar to that shown in Examples 1 and 3 using data from the MTOPS study. In this double-blind, randomized, placebo-controlled trial, 3047 men with moderate-to-severe urinary symptoms and enlarged prostate glands were randomized to receive either 1) doxazosin+placebo; 2) finasteride+placebo; 3) doxazosin+finasteride; or 4) placebo+placebo for a minimum of four and a maximum of six years, with an average follow-up of five years. Complete data on outcomes were available for 3047 men and frozen sera was archived at baseline.
(§1) Intent-to-treat, competing risks methodology was employed to model the 3,047 men with LUTS and BPH randomized to the MTOPS trial, a 5 year, randomized, placebo-controlled study evaluating the efficacy and safety of BPH medical therapy. These men were characterized at baseline by a number of parameters, including patient age and race, AUA symptom index (AUA-SI), BPH Impact Index (BII), total prostate and TZ volume measured by ultrasound, total prostate specific antigen (PSA) level, maximum flow rate (Qmax) and post-void residual (PVR) urine volume. Cox proportional hazards regression was used to relate these baseline variables to their future probability of AUR/SI within 4 years. The nomogram was internally validated with bootstrapping to assess its discrimination and calibration. Discrimination was quantified as the concordance index (CI).
as §1, with “used” for “employed”, “(Qmax),” for “(Qmax)”, “reaching a symptom progression endpoint” for “AUR/SI”
Table 13 provides P values for a series of predictors, including BPSA levels, in a multivariate competing risks model for AUR and/or SI. BPSA is a novel serum marker for BPH, and independently predicts the risk of AUR and/or surgery in men with BPH. Thus, nomogram tools that incorporate BPSA levels may improve the ability to manage patients with BPH.

[3] = tested on: male subjects with BPH; assay: Phase III placebo-controlled studies of dutasteride in men with BPH (ARIA 3001, 3002, 3003); Cox regression nomogram for AUR/SI within 2 years; type: in vivo, human
From the text: The use of single parameters to predict the risk of BPH progression or to determine the relative reduction potentially gained with 5ARI therapy is not optimal. Nomograms are prediction tools optimized for accuracy that utilize multiple parameters to predict specific outcomes. The objective of this study was to develop a prediction model, or nomogram, that would predict the probability that a person with BPH would experience AUR or require surgical intervention (SI) within two years, using data from the recently completed Phase III studies of dutasteride versus placebo in men with BPH (Roehrborn et al. 2002).
Data from three two-year multicenter, placebo-controlled, double-blind studies evaluating dutasteride 0.5 mg/day (n=2,167) or placebo (n=2,158) in male subjects with BPH were utilized to develop a nomogram. […] Most of the 4,325 subjects randomly assigned to receive either dutasteride or placebo completed 2 years of treatment (70% and 67%, respectively).
Subjects were characterized at baseline by a number of parameters, including AUA symptom index (AUA-SI) score, BPH impact index (BII) score, prostate volume, prostate specific antigen (PSA) level, maximum urinary flow rate (Qmax), and prior use of selective α1 blockers. Cox proportional hazards regression was used to relate these baseline variables to the future probability of developing AUR or requiring surgical intervention within 2 years. The nomogram was internally validated with bootstrapping, a re-sampling technique, to assess its discrimination and calibration. Discrimination was quantified as the concordance index, which is rated from 0.5 to 1.00. Calibration was assessed visually, by plotting observed proportions against predicted probabilities, again using bootstrapping to reduce over-fit bias.
With these benefits in mind, a nomogram was constructed to predict the risk of BPH progression using data from a phase III pivotal trial (ARIA 3001, 3002, 3003) used to establish the safety and efficacy of dutasteride prior to FDA approval. For each individual predictive parameter, points are awarded by drawing a perpendicular line to the point scale along the top of the nomogram. After all points are added, a perpendicular line is drawn from the bottom, total points scale to the line below, indicating the 2 year probability of a patient's developing retention or requiring BPH-related surgery within two years. Note that the use of dutasteride (versus placebo) leads to a total point score reduced by approximately 20 to 25 points, which translates to a 50% relative risk reduction across the entire range of total points for any patient. […] Thus, a 50% relative risk reduction over two years translates into about 13 to 14% absolute risk reduction over this very short time frame, with a much greater benefit likely experienced over time.

[4] = tested on: male subjects with BPH; conditions: cited from earlier work
[5] = tested on: men with moderate-to-severe urinary symptoms and enlarged prostate glands; conditions: PLESS, 5 mg finasteride, four years; cited from earlier work
[6] = AUR/SI within 4 years, intent-to-treat, competing risks
[7] = symptom progression (4-point rise in AUA-SI) within 4 years
[8] = dutasteride 0.5 mg/day vs placebo, over 24 months

Structure (SMILES)	AUA Rise, endpoint events [1]	BPH Invasive Therapy, events [1]	Creatinine Rise, endpoint events [1]	Incontinence, endpoint events [1]	Retention, endpoint events [1]	Total endpoint events [1]	UTI/urosepsis, endpoint events [1]	Hazard Ratio [2, 6]	Hazard Ratio [2, 7]	risk of AUR and/or SI in treated patients [2]	risk of symptom progression in treated patients [2]	other results
COc1cc2nc(N3CCN(C(=O)C4COc5ccccc5O4)CC3)nc(N)c2cc1OC (stereo not shown) [doxazosin]	59	41	0	11	13	85	2	0.7154	0.5278	not	significantly reduced risk of symptom progression	–
C[C@]12C=CC(=O)N[C@@H]1CC[C@@H]1[C@@H]2CC[C@]2(C)[C@@H](C(=O)Nc3cc(C(F)(F)F)ccc3C(F)(F)F)CC[C@@H]12 [dutasteride]	–	–	–	–	–	–	–	–	–	–	–	relative risk reduction across the entire range of total points ([3]; 2-year AUR/SI nomogram): 50%; Hazard Ratio (95% CIs) ([3]; full multivariate Cox model, AUR or surgical intervention within 2 years, dutasteride vs placebo group): 0.50 (0.37, 0.66); absolute risk reduction ([3]; over two years, most severely affected patients (27% maximum risk)): 13 to 14%; reduction of nomogram total point score ([3]; use of dutasteride versus placebo, 2-year AUR/SI nomogram): 20 to 25 points; relative risk reduction of AUR and/or surgical intervention ([3]; vs placebo, at endpoint): 50%; patients who had experienced AUR and/or surgical intervention at endpoint ([4]; at endpoint, 2-year studies): 3.5%; reduction in the need for BPH-related surgery [4, 8]: 48%; reduction in the risk of AUR [4, 8]: 57%
CC(C)(C)NC(=O)[C@H]1CC[C@H]2[C@@H]3CC[C@H]4NC(=O)C=C[C@]4(C)[C@H]3CC[C@]12C [finasteride]	74	15	0	9	6	89	0	0.3506	0.6961	reduced risk of AUR and/or SI	significantly reduced risk of symptom progression	incidence of BPH-related surgery [5]: 5%; incidence of precipitated AUR [5]: 2%; incidence of spontaneous AUR [5]: 1%; overall incidence of AUR [5]: 4%
